Where no end group is shown, it is not given here.
Assays:
[1] = tested on: PC-3M cells over expressing CT; assay: Xenograft testing, orthotopic implant in athymic nude mice; format: in vivo; conditions: compound 1 200 μg/day, compound 2 40 μg/day; for average life-expectancy: intraperitoneally every other day, untreated 54 days, ± SEM; for tumor growth in secondary organs (metastases): intraperitoneally, FIG. 5
Source text: In vivo xenograft testing was done on athymic nude mice to measure the anti-cancer effect of various compounds. PC-3M prostate cells were used that contain a red fluorescence protein from gene transfer to facilitate tracking of cancer cells. The red fluorescence protein used is described in Yang, M., Baranov, E., Wang, J. W., Jiang, P., Wang, X., Sun, F. X., Bouvet, M., Moossa, A. R., Penman, S., and Hoffman, R. M. (2002) Proc Natl Acad Sci U S A 99(6), 3824-3829, which is incorporated herein by reference. 1×10^5 PC-3M cells over expressing CT were implanted in 30 day old mice orthotopically, that is the prostate cancer cells were implanted into the prostate of the mice. The cells were then allowed to grow in their native environment allowing for metastasis into other organs such as the lymph nodes, bones and lungs. The mice, other than the control mice were injected intraperitoneally every other day. Dosing rates were 200 μg/day or 5 μg/g body weight/day-intrapertonieally for compound 1 and 40 μg/day or 1 μg/g body weight/day-intraperitoneally for compound 2. Tumor growth was measured by fluorescence imaging and the mice were sacrificed upon signs of morbidity such as immobility and high tumor burden.

PC-3M cells [2] = assay: MTT assay, cell proliferation; format: cell-based
Description: MTT assays were used to measure effect of the tested drugs on tumor growth. MTT assays were performed on a control group, a calcitonin (CT) stimulated group, a group treated with compound 1 (drug treated), and a group that was both drug treated and CT stimulated. Conditions for the MTT assay were as follows: Exponentially growing cells were plated in a 96-well plate at a density of 8×10^3 cells per well, and cultured for 24 hours in complete growth medium (RPMI 1640 containing 10% fetal bovine, 10 mM HEPES, 4 mM L-glutamine, 100 IU/ml penicillin G and 100 μg/ml streptomycin). The complete growth medium was then replaced with 100 μl of basal incubation medium (RPMI 1640 containing 0.1% BSA, 10 mM HEPES, 4 mM L-glutamine, 100 IU/ml penicillin G and 100 μg/ml streptomycin). The cells were then treated with test compounds (dissolved in basal incubation medium), and the culture was continued at 37° C. under 5% CO2 for 24 hours. The cells were then treated with MTT solution at 37° C. for 4 h, and the color reaction was stopped with the stop solution (10% sodium dodecyl sulfate solution in 0.01 M hydrochloric acid) (100 μl/well). The incubation at 37° C. was continued until the formazan product was completely dissolved. Absorbance of the samples was determined at 595 nm with an ELISA plate reader (Bio-Rad, Hercules, Calif.).

PC-3M cells [3] = assay: Invasion assay (Matrigel Boyden invasion chambers); format: cell-based; conditions: 24 hours, FIG. 2
Description: Invasion assays were used to identify compounds with antimetastatic activity. Invasion assays were performed on a control group, a calcitonin (CT) stimulated group, a drug treated group and a group that was both drug treated and CT stimulated. The assay employed two-compartmented Boyden invasion chambers sold under the trademark MATRIGEL. The assay conditions were as follows: exponentially growing PC cells were serum-starved for 24 hours with basal incubation medium. Serum-starved cells were then seeded at a density of 25×10^3 cells/well in the upper insert of the invasion chamber. The lower chamber received the chemoattractant medium, which consisted of 90% basal RPMI medium and 10% conditioned medium from the cultures of PC-3M cells expressing constitutively active Gsa protein as described in Chien, J., Wong, E., Nikes, E., Noble, M. J., Pantazis, C. G., and Shah, G. V. (1999) Oncogene 18(22), 3376-3382 which is incorporated herein by reference. The incubations were carried out for 24 hours, after which the basement matrix protein or Matrigel™ (along with non-invading cells) was scraped off with cottonswabs, and the outer side of the insert was fixed and stained using hemaoxylin staining sold under the trademark Diff Quick (Dade Behring Diagnostics, Aguada, PR). The number of cells migrated on the outer bottom side of the insert were counted under the microscope in six or more randomly selected fields (magnification: 100×). The final results were expressed as mean+/−SEM number of invaded cells per 100× field. Each experiment was done in triplicates, and the experiment was repeated twice. […] To correct this, the growth rate was determined for PC-3M cells under identical culture conditions. 25×10^3 cells were plated at hourly intervals in six-well dishes and cultured for 1-24 hours. Mean percent increase in the cell number was determined by counting the net increase in the number of cells. […] This correction was applied to the results of invasion assays.

[4] = tested on: PC-3M prostate cancer cell line; assay: In vitro metastasis assay (spheroid disaggregation, radial migration); format: cell-based
Description: In vitro metastasis assays were conducted to determine the anti-metastatic effect of various compounds. This assay involves preparation of spheroids approximately […] in diameter of cancer cells cultured on an extracellular matrix. In 24 hours, only metastatic cells disaggregate from the spheroid and start radial migration. Thus, lower measurements of radial migration are indicative of greater effectiveness of the drug/compound. Spheroids were prepared from single cell suspension of prostate cell lines as described before in Gondi, C. S., Lakka, S. S., Yanamandra, N., Olivero, W. C., Dinh, D. H., Gujrati, M., Tung, C. H., Weissleder, R., and Rao, J. S. (2004) Cancer Res 64(12), 4069-4077 and in Thomas, S., Chiriva-Internati, M., and Shah, G. V. (2007) Clin Exp Metastasis 24(5), 363-377 both of which are incorporated herein by reference. 5×10^4/ml cells in RPMI 1640 serum-free medium were placed on 96-well low-attachment tissue culture plates. The plates were rocked on gyrotory shaker in a CO2 incubator at 37° C. for 2 days, at the end of which the spheroids measuring 150-300 μm in diameter (˜4×10^4 cells/spheroid) were formed. A single spheroid was then placed in the center of each well of extracellular-matrix-coated 24-well microplate in […] of serum-free medium. From previous studies, it was determined that 1 hour was an appropriate time for spheroids to begin adhering to an extracellular matrix. Thus, t=0 was set as 1 hour from initial plating, so that if the plate was not disturbed, the spheroids would not move from their location at the time of plating. Spheroids were digitally photographed at t=0, cultured at 37° C. for 48 h and then re-photographed. […] The diameter of the area covered with cells migrated from the spheroids was measured in a microscope calibrated with a stage and ocular micrometer. The radial distance of migration was calculated after subtraction of the mean initial spheroidal diameter at t=0.

prostate tumors = assay: Testing of transgenic LPB-Tag mice that spontaneously form prostate tumors; format: in vivo; conditions: 80 μg/week intraperitoneally
Source text: In vivo testing was done on transgenic mice that spontaneously form prostate tumors to measure the anti-cancer effect of compound 2. The mice used were LPB-Tag mice of the type described in Kasper, S., and Smith, J. A., Jr. (2004) J Urol 172(1), 12-19 which is incorporated herein by reference. The mice were originally developed by Dr. Robert Matusik of Vanderbilt University. LPB-Tag mice are generated by the targeted expression of SV40 large T-antigen (Tag) in the prostate using androgen-regulated, prostate-specific large probasin (LPB) gene promoter. The mice develop PIN lesions as well as extensive prostate adenocarcinomas in adulthood. The mice had their p53 gene knocked out and T-antigen selectively targeted to the prostate. Therefore, the mice begin to develop prostate tumors spontaneously as they approached the age of 50 days (adulthood), the tumors gradually grew and became very large at the age of 90 days. Mice were sacrificed around day 90 and their prostates and other organs were harvested for studying tumor characteristics and histology. Compound 2 was delivered at a dosing of 80 μg/week or 2 μg/g body weight/week-intraperitoneally. […] These tests indicate that compounds of this invention may be used as a chemopreventive for high risk patients.

PC-3M cells [5] = assay: Growth rate of PC-3M cells by cell counting (correction for invasion assay); format: cell-based; conditions: vehicle control=1; cultured 1-24 hours
Description: Invasion assays were used to identify compounds with antimetastatic activity. Invasion assays were performed on a control group, a calcitonin (CT) stimulated group, a drug treated group and a group that was both drug treated and CT stimulated. The assay employed two-compartmented Boyden invasion chambers sold under the trademark MATRIGEL. The assay conditions were as follows: exponentially growing PC cells were serum-starved for 24 hours with basal incubation medium. Serum-starved cells were then seeded at a density of 25×10^3 cells/well in the upper insert of the invasion chamber. The lower chamber received the chemoattractant medium, which consisted of 90% basal RPMI medium and 10% conditioned medium from the cultures of PC-3M cells expressing constitutively active Gsa protein as described in Chien, J., Wong, E., Nikes, E., Noble, M. J., Pantazis, C. […] The number of cells migrated on the outer bottom side of the insert were counted under the microscope in six or more randomly selected fields (magnification: 100×). The final results were expressed as mean+/−SEM number of invaded cells per 100× field. […] To correct this, the growth rate was determined for PC-3M cells under identical culture conditions. […] Mean percent increase in the cell number was determined by counting the net increase in the number of cells. […]

Molecule	average life-expectancy [1] [days]	tumor growth in secondary organs (metastases) [1]	rate of CT stimulated cell proliferation (PC-3M cells [2]; 50 μM, 24 hours, CT stimulated, FIG. 1)	rate of baseline cell proliferation (PC-3M cells [2]; 50 μM, 24 hours, baseline (no CT), FIG. 1)	dosage rate until which no cytotoxic effect on PC-3M cells (PC-3M cells [2]; PC-3M cells) [µM]	baseline invasion (PC-3M cells [3]; 50 μM, no CT)	CT-stimulated invasion (PC-3M cells [3]; 50 μM, CT 50 nM)	dose until which no cytotoxicity [4] [µM]	disaggregation and migration of cells from spheroids ([4]; 50 μM)	effective dose range ([4]; multiple doses, distances migrated by the cells) [µM]	increased survival (prostate tumors)	decrease of tumor size measured at necropsy compared to diluents treated mice (prostate tumors; sacrificed around day 90) [%]	relative CT-induced increase in cell number, pooled results of all time points (PC-3M cells [5])	invasion of PC-3M cells (PC-3M cells [3]; CT 50 nM)
O=C1NC(=O)/C(=C/c2ccc(O)cc2)N1 [compound 1, (Z)-5-(4-hydroxybenzylidene)imidazolidine-2,4-dione]	61.44	completely prevented tumor growth in most secondary organs	moderate but significant decline	moderate but significant decline	≥ 500	did not affect baseline invasion	almost abolished CT-stimulated invasion	≥ 500	did not disaggregate or migrate	25 to 200				
CCSc1ccc(/C=C2\NC(=O)NC2=O)cc1 [compound 2, (Z)-5-(4-S-ethylbenzylidene)imidazolidine-2,4-dione]	66 ± 1	completely prevented tumor growth in most secondary organs									at least 1 week	62		
calcitonin (CGNLSTCMLGTYTQDFNKFHTFPQTAIGVGAP; ends and bridges not checked; cysteine pairing not given here; UniProt P01258 85-116, looked up) [CT, calcitonin (CT), used to stimulate proliferation, invasion and metastasis of PC-3M cells, reference compound]													1.19	significantly increased

Source: patent US8188130B1, “Anti-cancer hydantoin compounds and methods” (University of Louisiana at Monroe, priority 2008, dated 2012)
